Measurements from patent US20180327367A1, “MACROCYCLIC BROAD SPECTRUM ANTIBIOTICS” (priority 2015, published 2018).
Values after ≈ are worked out from the molar mass of the structure shown. Read-outs that look alike come from different tables or passages of the source.

How the values were obtained:
[1] = test system: Methicillin Resistant Staphylococcus aureus strain USA 300, NRS384; experiment: Minimum inhibitory concentration, broth micro-dilution (CLSI), S. aureus; assay type: cell-based; details: Staphylococcus aureus, MRSA / NRS 384 / USA300, 22 h, 35° C., 22 hours
Method in brief: (§1)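 Ten-point 2-fold series began at 4 μg/mL in protocol 2 and 0.5 μg/mL in protocol 3, in cation-adjusted MHB plus 0.002% Tween-80. Bacteria added to OD600 0.0005 final and incubated at 35° C for 22 hours per CLSI microdilution.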

[2] = test system: Escherichia coli MC4100 harboring the IMP4213 (E. coli IMP); experiment: microbe, parasite or virus in culture; assay type: cell-based; details: Escherichia coli, 22 h, read-out: MIC (μg/mL) E. coli IMP, E. coli MC4100 IMP4213, increased outer-membrane permeability; 35° C., 22 hours
Method in brief: as §1

[3] = test system: Escherichia coli ATCC 25922; experiment: Minimum inhibitory concentration, broth micro-dilution (CLSI), E. coli; assay type: cell-based; details: Escherichia coli, ATCC25922, 22 h, 35° C., 22 hours
[4] = target: T1, SpsB (Staphylococcus aureus signal peptidase) (Staphylococcus aureus, UniProt P0A070); experiment: cell-based; assay type: biochemical; details: SpsB IC50, whole-cell S. aureus (USA300 background, overexpressing SpsB) as SpsB source; fluorogenic peptide substrate, kinetic read 30 min
T1 construct: This assay uses a suspension of Staphylococcus aureus cells as a source of SpsB instead of recombinant SpsB protein; endogenous in cells; host or cells: S. aureus, USA300 background, overexpressing SpsB (whole-cell suspension from frozen pellets)
T1 sequence (P0A070 whole entry): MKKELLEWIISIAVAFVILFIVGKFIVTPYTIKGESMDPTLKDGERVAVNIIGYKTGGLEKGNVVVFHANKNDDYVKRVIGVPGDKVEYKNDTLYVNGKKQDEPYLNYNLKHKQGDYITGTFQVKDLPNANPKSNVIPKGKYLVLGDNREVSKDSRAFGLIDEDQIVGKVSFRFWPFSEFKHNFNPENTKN
Method in brief: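 Cleavage of an internally quenched (Dabcyl)βAla-KPAKAAE(Edans) peptide, added as 20 μM solution mixed 1:1 with cells, was followed for 30 min at 340/490 nm. SpsB came from a suspension of SpsB-overexpressing USA300 S. aureus in Tween-80-containing PBS buffer. Slopes plotted against 3-fold compound dilutions gave IC50.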

[5] = read-out: MIC (μg/mL) S. aureus, MRSA USA 300 NRS384
[6] = read-out: MIC (μg/mL) E. coli, E. coli ATCC 25922
[7] = MRSA USA 300 NRS384, read-out: MIC (μg/mL) S. aureus
[8] = E. coli ATCC 25922, read-out: MIC (μg/mL) E. coli

SMILES	MIC [1, 5] [µg/mL]	MIC [2] [µg/mL]	MIC [3, 6] [µg/mL]	IC50 [4] [nM]	MIC [1, 7] [µg/mL]	MIC [3, 8] [µg/mL]
CCCCCCCCCC(=O)NCC(=O)N[C@@H](CCN)C(=O)N(C)[C@@H]1C(=O)N[C@@H](C)C(=O)N[C@H](C(=O)NCC#N)Cc2ccc(OCCN)c(c2)-c2cc1ccc2OCCN [Compound 372]	0.13 (≈ 0.153 µM)	0.094 (≈ 0.111 µM)	8 (≈ 9.42 µM)	0.47		
CCCCCCCCCC(=O)N[C@@H](C)C(=O)N[C@@H](CCN)C(=O)N(C)[C@@H]1C(=O)N[C@@H](C)C(=O)N[C@H](C(=O)NCC#N)Cc2ccc(OCCN)c(c2)-c2cc1ccc2OCCN [Compound 373]	0.19 (≈ 0.22 µM)	0.063 (≈ 0.073 µM)	4 (≈ 4.63 µM)	0.88		
CCCCc1ccc(NC(=O)CCC(=O)N[C@@H](CCN)C(=O)N(C)[C@@H]2C(=O)N[C@@H](C)C(=O)N[C@H](C(=O)NCC#N)Cc3ccc(OCCN)c(c3)-c3cc2ccc3OCCN)c(C)c1 [Compound 377]		0.13 (≈ 0.147 µM)		1	0.13 (≈ 0.147 µM)	8 (≈ 9.06 µM)
CCCCCCCCCC(=O)N[C@@H](CCO)C(=O)N[C@@H](CCN)C(=O)N(C)[C@@H]1C(=O)N[C@@H](C)C(=O)N[C@H](C(=O)NCC#N)Cc2ccc(OCCN)c(c2)-c2cc1ccc2OCCN [Compound 378]	0.13 (≈ 0.146 µM)	0.25 (≈ 0.28 µM)	24 (≈ 26.9 µM)	0.87		
CCCCCCCCCC(=O)N[C@H](CCO)C(=O)N[C@@H](CCN)C(=O)N(C)[C@@H]1C(=O)N[C@@H](C)C(=O)N[C@H](C(=O)NCC#N)Cc2ccc(OCCN)c(c2)-c2cc1ccc2OCCN [Compound 379]	0.25 (≈ 0.28 µM)	0.25 (≈ 0.28 µM)	32 (≈ 35.8 µM)	0.89		
CCCCc1ccc(C(=O)N[C@H](CCO)C(=O)N[C@@H](CCN)C(=O)N(C)[C@@H]2C(=O)N[C@@H](C)C(=O)N[C@H](C(=O)NCC#N)Cc3ccc(OCCN)c(c3)-c3cc2ccc3OCCN)c(C)c1 [Compound 381]	0.5 (≈ 0.548 µM)	0.5 (≈ 0.548 µM)	64 (≈ 70.1 µM)	2.9		
CCCCCCCc1ccc(C(=O)N[C@@H](CO)C(=O)N[C@@H](CCN)C(=O)N(C)[C@@H]2C(=O)N[C@@H](C)C(=O)N[C@H](C(=O)NCC#N)Cc3ccc(OCCN)c(c3)-c3cc2ccc3OCCN)cc1 [Compound 383]	0.018 (≈ 0.0194 µM)	0.023 (≈ 0.0248 µM)	4 (≈ 4.31 µM)	0.88		
CCCCCCCCCCCC(=O)N[C@@H](CO)C(=O)N[C@@H](CCN)C(=O)N(C)[C@@H]1C(=O)N[C@@H](C)C(=O)N[C@H](C(=O)NCC#N)Cc2ccc(OCCN)c(c2)-c2cc1ccc2OCCN [Compound 384]	0.012 (≈ 0.0132 µM)	0.031 (≈ 0.0342 µM)	3 (≈ 3.31 µM)	1.2		
CCCCCCCSc1ccc(C(=O)N[C@@H](CCN)C(=O)N(C)[C@@H]2C(=O)N[C@@H](C)C(=O)N[C@H](C(=O)NCC#N)Cc3ccc(OCCN)c(c3)-c3cc2ccc3OCCN)c(C)c1 [Compound 389]		0.031 (≈ 0.035 µM)		0.81	0.063 (≈ 0.0711 µM)	0.25 (≈ 0.282 µM)
CCCCCCCS(=O)(=O)c1ccc(C(=O)N[C@@H](CCN)C(=O)N(C)[C@@H]2C(=O)N[C@@H](C)C(=O)N[C@H](C(=O)NCC#N)Cc3ccc(OCCN)c(c3)-c3cc2ccc3OCCN)c(C)c1 [Compound 390]		0.031 (≈ 0.0338 µM)		1.1	0.13 (≈ 0.142 µM)	3 (≈ 3.27 µM)
CCCCCCSc1ccc(C(=O)N[C@@H](CCN)C(=O)N(C)[C@@H]2C(=O)N[C@@H](C)C(=O)N[C@H](C(=O)NCC#N)Cc3ccc(OCCN)c(c3)-c3cc2ccc3OCCN)c(C)c1 [Compound 391]		0.016 (≈ 0.0183 µM)		0.99	0.047 (≈ 0.0539 µM)	0.5 (≈ 0.573 µM)
CCCCCCCCCCN[C@@H](CO)C(=O)N(C)[C@@H]1C(=O)N[C@@H](C)C(=O)N[C@H](C(=O)NCC#N)Cc2ccc(OCCN)c(c2)-c2cc1ccc2OCCN [Compound 400]	0.25 (≈ 0.327 µM)	2 (≈ 2.61 µM)	> 64	5		
CCCCCCCCCCCNC(=O)N[C@@H](CCN)C(=O)N(C)[C@@H]1C(=O)N[C@@H](C)C(=O)N[C@H](C(=O)NCC#N)Cc2ccc(OCCN)c(c2)-c2cc1ccc2OCCN [Compound 403]		0.023 (≈ 0.0275 µM)		< 0.5	0.029 (≈ 0.0347 µM)	1.3 (≈ 1.56 µM)
CCCCCCc1ccc(NC(=O)N[C@@H](CCN)C(=O)N(C)[C@@H]2C(=O)N[C@@H](C)C(=O)N[C@H](C(=O)NCC#N)Cc3ccc(OCCN)c(c3)-c3cc2ccc3OCCN)c(C)c1 [Compound 404]	0.063 (≈ 0.0737 µM)	0.047 (≈ 0.055 µM)	2 (≈ 2.34 µM)	0.88		
CCCCCCCCCCC(C)(C)C(=O)N[C@@H](CCN)C(=O)N(C)[C@@H]1C(=O)N[C@@H](C)C(=O)N[C@H](C(=O)NCC#N)Cc2ccc(OCCN)c(c2)-c2cc1ccc2OCCN [Compound 406]		0.031 (≈ 0.0366 µM)		1.2	0.063 (≈ 0.0743 µM)	2 (≈ 2.36 µM)
CCCCCCCCc1ccc(C(=O)N[C@@H](CCN)C(=O)N(C)[C@@H]2C(=O)N[C@@H](C)C(=O)N[C@H](C(=O)NCC#N)Cc3ccc(OCCN)c(c3)-c3cc2ccc3OCCN)c(OCC(N)=O)c1 [Compound 407]		0.047 (≈ 0.0507 µM)		1.1	0.047 (≈ 0.0507 µM)	4 (≈ 4.31 µM)
CCCCCCCC(F)(F)c1ccc(C(=O)N[C@@H](CCN)C(=O)N(C)[C@@H]2C(=O)N[C@@H](C)C(=O)N[C@H](C(=O)NCC#N)Cc3ccc(OCCN)c(c3)-c3cc2ccc3OCCN)c(Cl)c1 [Compound 412]	0.031 (≈ 0.0335 µM)	0.012 (≈ 0.013 µM)	0.13 (≈ 0.141 µM)	0.6		
CCCCCCCC(=O)c1ccc(C(=O)N[C@@H](CCN)C(=O)N(C)[C@@H]2C(=O)N[C@@H](C)C(=O)N[C@H](C(=O)NCC#N)Cc3ccc(OCCN)c(c3)-c3cc2ccc3OCCN)c(Cl)c1 [Compound 413]		0.0078 (≈ 0.00864 µM)		0.88	0.031 (≈ 0.0343 µM)	0.25 (≈ 0.277 µM)
CCCCCCCCCCNCCC(=O)N[C@@H](CCCCN)C(=O)N(C)[C@@H]1C(=O)N[C@@H](C)C(=O)N[C@H](C(=O)NC(C)C#N)Cc2ccc(OCCN)c(c2)-c2cc1ccc2OCCN (stereo partly shown) [Compound 415]	> 4	4 (≈ 4.49 µM)	64 (≈ 71.8 µM)	14		
CCCCCCCCCCCC(=O)N[C@@H](CO)C(=O)N(C)[C@@H]1C(=O)N[C@@H](C)C(=O)N[C@H](C(=O)N[C@H](C#N)C2CC2)Cc2ccc(OCCN)c(c2)-c2cc1ccc2OCCN [Compound 420]		1 (≈ 1.18 µM)		8.4	4 (≈ 4.72 µM)	24 (≈ 28.3 µM)
CCCCCCCCc1cccc(C(=O)N[C@@H](CCCCN)C(=O)N(C)[C@@H]2C(=O)N[C@@H](C)C(=O)N[C@H](C(=O)NCC#N)Cc3ccc(OCCN)c(c3)-c3cc2ccc3OCCN)c1 [Compound 421]		0.063 (≈ 0.0714 µM)		1.6	0.063 (≈ 0.0714 µM)	2 (≈ 2.27 µM)
CCCCCCCCc1ccc(C)c(C(=O)N[C@@H](CCCCN)C(=O)N(C)[C@@H]2C(=O)N[C@@H](C)C(=O)N[C@H](C(=O)NCC#N)Cc3ccc(OCCN)c(c3)-c3cc2ccc3OCCN)c1 [Compound 422]		0.031 (≈ 0.0346 µM)		1.1	0.063 (≈ 0.0703 µM)	1.5 (≈ 1.67 µM)
C[C@@H]1NC(=O)[C@@H](N(C)C(=O)[C@H](CCN)NC(=O)c2ccc(C#Cc3ccccc3)cc2F)c2ccc(OCCN)c(c2)-c2cc(ccc2OCCN)C[C@@H](C(=O)NCC#N)NC1=O [Compound 423]	0.063 (≈ 0.0733 µM)	0.014 (≈ 0.0163 µM)	0.44 (≈ 0.512 µM)	0.85		
C[C@@H]1NC(=O)[C@@H](N(C)C(=O)[C@H](CCN)NC(=O)c2ccc(C#Cc3ccccc3)cc2Cl)c2ccc(OCCN)c(c2)-c2cc(ccc2OCCN)C[C@@H](C(=O)NCC#N)NC1=O [Compound 424]	0.063 (≈ 0.0719 µM)	0.016 (≈ 0.0183 µM)	0.56 (≈ 0.639 µM)	0.75		
Cc1cc(C#Cc2ccccc2)ccc1C(=O)N[C@@H](CCN)C(=O)N(C)[C@@H]1C(=O)N[C@@H](C)C(=O)N[C@H](C(=O)NCC#N)Cc2ccc(OCCN)c(c2)-c2cc1ccc2OCCN [Compound 425]		0.018 (≈ 0.021 µM)		1.1	0.047 (≈ 0.0549 µM)	0.63 (≈ 0.736 µM)
CCCCC1CCC(C2CCC(C(=O)N[C@@H](CCN)C(=O)N(C)[C@@H]3C(=O)N[C@@H](C)C(=O)N[C@H](C(=O)NCC#N)Cc4ccc(OCCN)c(c4)-c4cc3ccc4OCCN)CC2)CC1 (stereo partly shown) [Compound 426]		< 0.0039		1.2	0.063 (≈ 0.0711 µM)	0.19 (≈ 0.214 µM)
C[C@@H]1NC(=O)[C@@H](N(C)C(=O)[C@H](CCN)NC(=O)/C=C/c2ccc(-c3ccc(Cl)cc3)cc2)c2ccc(OCCN)c(c2)-c2cc(ccc2OCCN)C[C@@H](C(=O)NCC#N)NC1=O [Compound 427]	0.063 (≈ 0.0717 µM)	0.047 (≈ 0.0535 µM)	1 (≈ 1.14 µM)	1.2		
CCCCc1ccc(/C=C/C(=O)N[C@@H](CCN)C(=O)N(C)[C@@H]2C(=O)N[C@@H](C)C(=O)N[C@H](C(=O)NCC#N)Cc3ccc(OCCN)c(c3)-c3cc2ccc3OCCN)cc1 [Compound 428]		0.023 (≈ 0.0279 µM)		1.2	0.094 (≈ 0.114 µM)	1 (≈ 1.21 µM)
